Test results as given in PMC10179701, “Towards Protection of Nucleic Acids from Herbicide Attack: Self-Assembly of Betaines Based on Pillar[5]arene with Glyphosate and DNA” (International Journal of Molecular Sciences, 2023).
Marks after values point to notes of the source that are not given here.

Legend:
LEC cells = assay: MTT test, LEC cells
Description: (§1) The next stage of this work was the study of pillar[5]arenes 1–4 ability to inhibit the viability and proliferative activity of embryonic lung epithelial (LEC) and human lung adenocarcinoma (A549) cells using the MTT test.
(§2) Further, the ability of GIS to inhibit the viability and proliferative activity of LEC and A549 cells was studied by the MTT test. […] The average inhibitory concentration (IC50) was calculated for GIS (Table 3). […]
(§3) 1.6. Cytotoxicity of pillar[5]arenes 1–4, GIS and their mixtures on A549 and LEC Cell Lines […]
(§4) activity of LEC cells and A549 cells was investigated using the MTT test according to [2]. A549 – human alveolar adenocarcinoma cell line (ATCC, Rockville, Maryland, USA) and cow embryo lung epithelial (LEC) cells (Animal Cell Culture Collection of Russian Academy of Agricultural Science, Kazan, Russia) were cultured in DMEM (GIBCO, Waltham, MA, USA) medium supplemented with 10% serum and 100 units/mL of penicillin (PanEco, Moscow, Russia) and streptomycin (PanEco, Moscow, Russia) in a humidified atmosphere with 5% CO2 at 37 °C. Cells were seeded in 96‐well plates at a concentration of 10^4 cells/well. After 24 h of cultivation, the medium was removed from the wells and replaced with a fresh one with the addition of the test substances. The volume of the culture medium in the wells was 100
(§5) μL. After 24 h incubation of cells in the presence of substances, the medium in the wells was replaced with a fresh one containing MTT reagent at a final concentration of 0.5 mg/mL. The cells were incubated with MTT for 4 h at 37 °C in an atmosphere of 5% CO2. Then, the medium was aspirated from the wells and 100 μL of dimethyl sulfoxide was added. Probes were incubated at 37 °C for 15 min in the dark for the formazan crystals to dissolve. The optical density of the formazan solution in the wells was measured using a plate reader (BioRad xMarkTM Microplate Spectrophotometer, USA) at a wavelength of 570 nm.
(§6) Three series of experiments were carried out with at least 8 replications for each variant in the series. […]

A549 cells = assay: MTT test, A549 cells
Description: as §1, §2, §3, §4, §5, §6

With C[N+](C)(CCCNC(=O)COc1cc2c(OCC(=O)NCCC[N+](C)(C)CC(=O)N[C@@H](Cc3ccccc3)C(=O)[O-])cc1Cc1cc(OCC(=O)NCCC[N+](C)(C)CC(=O)N[C@@H](Cc3ccccc3)C(=O)[O-])c(cc1OCC(=O)NCCC[N+](C)(C)CC(=O)N[C@@H](Cc1ccccc1)C(=O)[O-])Cc1cc(OCC(=O)NCCC[N+](C)(C)CC(=O)N[C@@H](Cc3ccccc3)C(=O)[O-])c(cc1OCC(=O)NCCC[N+](C)(C)CC(=O)N[C@@H](Cc1ccccc1)C(=O)[O-])Cc1cc(OCC(=O)NCCC[N+](C)(C)CC(=O)N[C@@H](Cc3ccccc3)C(=O)[O-])c(cc1OCC(=O)NCCC[N+](C)(C)CC(=O)N[C@@H](Cc1ccccc1)C(=O)[O-])Cc1cc(OCC(=O)NCCC[N+](C)(C)CC(=O)N[C@@H](Cc3ccccc3)C(=O)[O-])c(cc1OCC(=O)NCCC[N+](C)(C)CC(=O)N[C@@H](Cc1ccccc1)C(=O)[O-])C2)CC(=O)N[C@@H](Cc1ccccc1)C(=O)[O-] [Compound 4, 4,8,14,18,23,26,28,31,32,35-Decakis-[(N-[3’-dimethyl({oxidocarbonyl[S-benzyl]methyl}aminocarbonylmethyl)ammonio]propyl)aminocarbonylmethoxy]-pillar[5]arene] the IC50 (LEC cells; MTT, 24 h) was >100 * μg/mL, the cytotoxic activity (LEC cells; concentration range 2–100 μg/mL) was “did not show statistically significant cytotoxic activity” and the IC50 (A549 cells; A549, MTT, 24 h) was >100 * μg/mL. The cytotoxic activity (A549 cells; A549, concentration range 2–100 μg/mL) was “did not show statistically significant cytotoxic activity”.
